{
  "source": "patent US9494594B2",
  "about": "“Method of determining administration effect in cancer chemotherapy with S-1” (National University Corporation Chiba University, priority 2012, dated 2016)",
  "tested_on": "shDCN cell line and Mock cell line of anticancer drug-resistant cell lines Sa-3R and KB-R",
  "assay": "5-FU sensitivity test, MTS cell survival assay",
  "format": "cell-based",
  "conditions": "72 hours incubation, shDCN vs Mock cell line",
  "description": "Next, the shDCN cell line and the Mock cell line were cultured in the presence of an anticancer drug, and a change in the degree of resistance to the anticancer drug by the suppressed expression of DCN was verified by measuring a change in cell growth ability. 5-FU was used as the anticancer drug.\nThe shDCN cell line and the Mock cell line were each seeded to a 96-well plate at a density of 2×10^3 cells/100 μl of medium/well, and simultaneously mixed with 10 μl of a medium supplemented with 5-FU. The concentration of 5-FU was adjusted so that the final concentration was 1 μM to 1×10^4 μM. After that, the cells were incubated for 72 hours, and a cell survival rate was evaluated by an MTS assay. An MTS solution (product of Promega Corporation) was added at a volume of 10 μl/well, and the cells were incubated for 4 hours. After that, counting was performed with a plate reader at a wavelength of 490 nm. A 50% survival concentration (IC50) was determined based on the results of, the MTS assay.",
  "data": [
    {"smiles": "O=c1[nH]cc(F)c(=O)[nH]1", "note": "[5-FU, 5-fluorouracil]", "values": [
      {"measurement": "IC50 value of shDCN cell line relative to Mock cell line (increase in sensitivity to 5-FU)", "result": "about 10 times lower"}
    ]}
  ]
}
